This note sets out measurements from patent US20090170898A1, “Sulphonamide Derivatives as Modulators of the Glucocorticoid Receptor” (priority 2006, published 2009).

This test has as its target T1, recombinant human GR (Homo sapiens, UniProt P04150).
T1 construct: purchased Panvera/Invitrogen P2812 (kit P2893)
T1 sequence (P04150 1-777): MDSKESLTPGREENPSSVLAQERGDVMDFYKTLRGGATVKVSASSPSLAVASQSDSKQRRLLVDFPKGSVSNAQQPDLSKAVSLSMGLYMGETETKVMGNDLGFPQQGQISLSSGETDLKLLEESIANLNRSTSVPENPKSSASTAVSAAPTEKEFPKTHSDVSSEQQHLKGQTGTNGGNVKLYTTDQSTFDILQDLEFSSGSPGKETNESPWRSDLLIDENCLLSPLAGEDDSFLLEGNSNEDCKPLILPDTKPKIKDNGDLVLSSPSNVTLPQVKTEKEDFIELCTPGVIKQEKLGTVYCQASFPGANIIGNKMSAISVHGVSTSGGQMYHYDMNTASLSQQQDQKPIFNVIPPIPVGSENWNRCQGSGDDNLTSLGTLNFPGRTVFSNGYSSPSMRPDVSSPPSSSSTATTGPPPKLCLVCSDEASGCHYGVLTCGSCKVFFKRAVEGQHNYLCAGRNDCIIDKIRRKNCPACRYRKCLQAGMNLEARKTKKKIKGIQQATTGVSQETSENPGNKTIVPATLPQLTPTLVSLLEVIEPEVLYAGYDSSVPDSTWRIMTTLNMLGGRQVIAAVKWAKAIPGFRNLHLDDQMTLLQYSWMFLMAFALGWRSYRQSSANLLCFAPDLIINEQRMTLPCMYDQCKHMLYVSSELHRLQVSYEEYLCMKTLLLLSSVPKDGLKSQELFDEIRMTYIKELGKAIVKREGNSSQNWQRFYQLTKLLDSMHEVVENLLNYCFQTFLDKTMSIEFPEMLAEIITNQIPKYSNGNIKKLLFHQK
The test can be described thus: Human Glucocorticoid Receptor (GR) fluorescence polarization binding assay (GRhuFL_FP_v2). The note with it: GS Red tracer, 2 hours at room temperature, 100% control 10 μM Dexamethasone, read-out: GRhuFL_FP_v2 (GR-binders) IC50. The procedure: Human Glucocorticoid Receptor (GR) Assay
The assay is based on a commercial kit from Panvera/Invitrogen (Part number P2893). The assay technology is fluorescence polarization. […] The GR and Stabilizing Peptide reagents are stored at −70° C. while the GS Red is stored at −20° C. Also included in the kit are 1M DTT (Panvera, Part number P2325, stored at −20° C.) and GR Screening buffer 10× (Panvera, Part number P2814, stored at −70° C. initially but once thawed stored at room temperature). Avoid repeated freeze/thaws for all reagents. The GR Screening buffer 10× comprises 100 mM potassium phosphate, 200 mM sodium molybdate, 1 mM EDTA and 20% DMSO.
0% control was 100% DMSO and 100% control was 10 μM Dexamethasone. Background solution (8 μL; assay buffer 10×, Stabilizing Peptide, DTT and ice cold MQ water) was added to the background wells. GS Red solution (7 μL; assay buffer 10×, Stabilizing Peptide, DTT, GS Red and ice cold water) was added to all wells except background wells. GR solution (7 μL; assay buffer 10×, Stabilizing Peptide, DTT, GR and ice cold water) was added to all wells. The plate was sealed and incubated in a dark at room temperature for 2 hours.
For orientation: Polarisation of emitted light reports the rotation of a fluorescent probe.
`Cc1cc(C)c(S(=O)(=O)N[C@H]2CCN(c3cccc4ncccc34)C2)c(C)c1` [Example 1, 2,4,6-Trimethyl-N-[(3S)-1-quinolin-5-ylpyrrolidin-3-yl]benzenesulfonamide]: the IC50 is 0.048 µM.

In the case of `O=S(=O)(N[C@H]1CCN(c2cccc3ncccc23)C1)c1c(Cl)cc(Cl)cc1Cl` [Example 2, 2,4,6-Trichloro-N-[(3S)-1-quinolin-5-ylpyrrolidin-3-yl]benzenesulfonamide], the IC50 was determined as 0.017 µM.

In the case of `O=S(=O)(N[C@H]1CCN(c2cccc3c2cnn3-c2ccc(F)nc2)C1)c1c(Cl)cc(Cl)cc1Cl` [Example 3, 2,4,6-Trichloro-N-[(3S)-1-[1-(6-fluoropyridin-3-yl)-1H-indazol-4-yl]pyrrolidin-3-yl]benzenesulfonamide], the IC50 was found to be 0.019 µM.

`O=S(=O)(N[C@H]1CCN(c2cccc3c2cnn3-c2ccc(F)cc2)C1)c1c(Cl)cc(Cl)cc1Cl` [Example 4, 2,4,6-Trichloro-N-{(3S)-1-[1-(4-fluorophenyl)-1H-indazol-4-yl]pyrrolidin-3-yl}benzenesulfonamide]: the IC50 was determined as 0.025 µM.

Regarding `Cc1cc(Cl)cc(Cl)c1S(=O)(=O)N[C@H]1CCN(c2cccc3c2cnn3-c2ccc(F)nc2)C1` [Example 5, 2,4-Dichloro-N-{(3S)-1-[1-(6-fluoropyridin-3-yl)-1H-indazol-4-yl]pyrrolidin-3-yl}-6-methylbenzenesulfonamide], the IC50 worked out at 0.025 µM.

With `Cc1cc(Cl)cc(Cl)c1S(=O)(=O)N[C@H]1CCN(c2cccc3ncccc23)C1` [Example 6, 2,4-Dichloro-6-methyl-N-[(3S)-1-quinolin-5-ylpyrrolidin-3-yl]benzenesulfonamide], the IC50 was determined as 0.026 µM.

`Cc1cc(C)c(S(=O)(=O)N[C@H]2CCN(c3cccc4c3cnn4-c3ccc(F)nc3)C2)c(C)c1` [Example 7, N-{(3S)-1-[1-(6-Fluoropyridin-3-yl)-1H-indazol-4-yl]pyrrolidin-3-yl}-2,4,6-trimethylbenzenesulfonamide]: the IC50 is 0.038 µM.

Take `Cc1nn(C2CCCC2)c(C)c1S(=O)(=O)N[C@H]1CCN(c2cccc3c2cnn3-c2ccc(F)cc2)C1` [Example 9, 1-Cyclopentyl-N-{(3S)-1-[1-(4-fluorophenyl)-1H-indazol-4-yl]pyrrolidin-3-Yl}-3,5-dimethyl-1H-pyrazole-4-sulfonamide]: the IC50 worked out at 0.12 µM.

A word on the IC50: it is the point on the concentration scale where inhibition reaches its midpoint.
